Key:
human PPARγ- LBD = target: T1, human PPARγ- LBD (Homo sapiens, UniProt P37231); assay: Lanthascreen TR-FRET PPARγ competitive binding assay; settings: for Raw Data / Raw Data - Background: TR-FRET
T1 construct: a mixture of a human PPARγ- LBD labelled with glutathione S-transferase (GST)
T1 sequence (P37231 238-503 limits assumed): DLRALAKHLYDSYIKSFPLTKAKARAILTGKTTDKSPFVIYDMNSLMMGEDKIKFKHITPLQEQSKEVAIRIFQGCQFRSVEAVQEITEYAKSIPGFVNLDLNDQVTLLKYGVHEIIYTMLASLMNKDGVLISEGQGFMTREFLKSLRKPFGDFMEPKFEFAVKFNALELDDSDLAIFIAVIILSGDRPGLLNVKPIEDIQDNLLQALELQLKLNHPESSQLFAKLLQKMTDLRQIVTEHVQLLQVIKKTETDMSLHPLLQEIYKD
Experimental: Using the Lanthasreen TR-FRET assay, the synthesized compounds were first preliminary tested for the PPARγ binding affinity. […] A chemical under test displaces the tracer from PPAR-LBD, which lowers the TR-FRET ratio and decreases the FRET signal Figure 8 [33].
A multimode low-volume proxy plate reader was used to read the plates after one hour of incubation. Then, a mixture of a human PPARγ- LBD labelled with glutathione S-transferase (GST), a fluorescent small pan-PPAR ligand (FluormoneTM Pan-PPAR Green), and terbium-labeled anti-GST antibody was added.

egg albumin = egg albumin (Gallus gallus, UniProt P01012); assay: Albumin denaturation assay; assay type: biochemical, hen; settings: mean ± SD (n = 3), read-out: Percentage inhibition of denaturation of albumin
egg albumin, sequence (P01012 2-386): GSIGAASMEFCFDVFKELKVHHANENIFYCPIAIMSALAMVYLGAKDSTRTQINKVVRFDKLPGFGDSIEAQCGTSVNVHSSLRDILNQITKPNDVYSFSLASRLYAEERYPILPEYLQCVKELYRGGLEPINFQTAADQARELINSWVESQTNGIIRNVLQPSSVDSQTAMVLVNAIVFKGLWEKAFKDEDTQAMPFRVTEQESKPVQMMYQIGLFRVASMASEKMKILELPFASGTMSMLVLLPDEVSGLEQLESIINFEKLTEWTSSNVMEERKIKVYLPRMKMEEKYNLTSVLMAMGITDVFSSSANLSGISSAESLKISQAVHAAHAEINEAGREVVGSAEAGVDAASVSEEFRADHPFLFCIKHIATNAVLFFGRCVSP
Experimental: Inflammation is accompanied by protein denaturation. Tissue protein denaturation is a well-established cause of Inflammatory illnesses. Inflammatory disorders including rheumatoid arthritis, diabetes, and cancer have been linked to the denaturation of proteins. The ability of a substance to stop proteins from becoming denaturized has a role in the prevention of inflammatory disorders. […] Denaturation of proteins is accomplished by keeping the reaction mixture in a water bath at 70 °C for […].
Minor modifications were made to Mizushima and Kobayashi’s and Sakat et al. methodologies. The reaction mixture containing 0.2 mL of egg albumin (from a fresh hen’s egg) is mixed with 2.8 mL of phosphate-buffered saline (PBS, pH 6.4) and 2 mL of synthesized compounds in varying concentrations. The mixture was then heated at 70 °C for 5 min after being incubated at 37 °C for approximately 15–20 min. After cooling, their absorbance was measured at 660 nm spectrometrically. Three duplicates of the experiment were carried out. […] Percentage inhibition = (OD control − OD sample/OD control) × 100

[1] = tested on: human red blood cells (HRBC); assay: HRBC membrane stabilization method; settings: for HRBC membrane stabilization (percentage protection against HRBC lysis): mean ± SD (n = 3)
Experimental: The principle of this procedure is to stabilize the membrane of human red blood cells by hypotonic membrane lysis. […] Lysosomal enzyme levels typically decrease as the HRBC membrane is stabilized.
The packed cells in this blood solution were separated after centrifugation at 3000 rpm [41]. The packed cells were cleaned using an isosaline solution, and then, isosaline was used to prepare a 10% v/v suspension. This HRBC suspension was employed to estimate its anti-inflammatory properties. Different concentrations of the synthesized compounds and the reference standard were each combined with 1 mL of phosphate buffer (pH 7.4), 2 mL of hyposaline, and 0.5 mL of HRBC solution. A total of 2.0 mL of distilled water was utilized as the control. The assay mixtures were all centrifuged at 3000 rpm after 30 min of incubation at 37°C. The following formula was used to determine the percentage of stabilized HRBC membranes. Percentage protection= 100 − (OD sample/OD control) × 100

`C=CCc1ccc(OCC(=O)Nc2ccccc2Cl)c(OC)c1` [Compound 1f, 2-(4-Allyl-2-methoxyphenoxy)-N-(2-chlorophenyl)acetamide] was tested, and the IC50 (human PPARγ- LBD; Lanthascreen TR-FRET competitive binding) was 5.15 µM, the “Raw Data” value (human PPARγ- LBD; 0.0000512 µM) was 1.795 RLU and the “Raw Data - Background” value (human PPARγ- LBD; 0.0000512 µM) was 2.02 RLU. For the same molecule, the “Raw Data” value (human PPARγ- LBD; 0.000256 µM) was 1.801 RLU, the “Raw Data - Background” value (human PPARγ- LBD; 0.000256 µM) was 2.04 RLU and the “Raw Data” value (human PPARγ- LBD; 0.00128 µM) was 1.764 RLU. The “Raw Data - Background” value (human PPARγ- LBD; 0.00128 µM) was 2 RLU, the “Raw Data” value (human PPARγ- LBD; 0.0064 µM) was 1.826 RLU and the “Raw Data - Background” value (human PPARγ- LBD; 0.0064 µM) was 2.061 RLU. The “Raw Data” value (human PPARγ- LBD; 0.032 µM) was 1.766 RLU, the “Raw Data - Background” value (human PPARγ- LBD; 0.032 µM) was 1.99 RLU and the “Raw Data” value (human PPARγ- LBD; 0.16 µM) was 1.711 RLU. For the same molecule, the “Raw Data - Background” value (human PPARγ- LBD; 0.16 µM) was 1.945 RLU, the “Raw Data” value (human PPARγ- LBD; 0.8 µM) was 1.881 RLU and the “Raw Data - Background” value (human PPARγ- LBD; 0.8 µM) was 2.056 RLU. For the same molecule, the “Raw Data” value (human PPARγ- LBD; 4 µM) was 1.247 RLU, the “Raw Data - Background” value (human PPARγ- LBD; 4 µM) was 1.542 RLU and the “Raw Data” value (human PPARγ- LBD; 20 µM) was 0.799 RLU. For the same molecule, the “Raw Data - Background” value (human PPARγ- LBD; 20 µM) was 0.862 RLU, the “Raw Data” value (human PPARγ- LBD; 100 µM) was 0.7757 RLU and the “Raw Data - Background” value (human PPARγ- LBD; 100 µM) was 0.9427 RLU. The inhibition at 6.25 µM (egg albumin; 6.25 µM) was 7.74 ± 0.34%, the inhibition at 12.5 µM (egg albumin; 12.5 µM) was 13.6 ± 0.23% and the inhibition at 25 µM (egg albumin; 25 µM) was 24.4 ± 0.48%. It also gave an inhibition at 50 µM (egg albumin; 50 µM) of 31 ± 0.55%, an inhibition at 100 µM (egg albumin; 100 µM) of 43.08 ± 0.43% and an inhibition at 200 µM (egg albumin; 200 µM) of 50%. The inhibition at 400 µM (egg albumin; 400 µM) was 62.41 ± 0.42%, the “HRBC membrane stabilization (percentage protection against HRBC lysis)” value ([1]; 6.25 µM) was 15.17 ± 0.64% and the “HRBC membrane stabilization (percentage protection against HRBC lysis)” value ([1]; 12.5 µM) was 25.09 ± 0.66%. The “HRBC membrane stabilization (percentage protection against HRBC lysis)” value ([1]; 25 µM) was 41.88 ± 0.55%, the “HRBC membrane stabilization (percentage protection against HRBC lysis)” value ([1]; 50 µM) was 49.50 ± 0.46% and the “HRBC membrane stabilization (percentage protection against HRBC lysis)” value ([1]; 100 µM) was 58.61 ± 0.38%. The “HRBC membrane stabilization (percentage protection against HRBC lysis)” value ([1]; 200 µM) was 73.43 ± 0.36%, the “HRBC membrane stabilization (percentage protection against HRBC lysis)” value ([1]; 400 µM) was 85.79 ± 0.18% and the IC50 ([1]; Homo sapiens, Erythrocyte, read-out: IC50 Values, HRBC membrane stabilization method) was 55 µM.

Source: PMC10180488, “Novel Derivatives of Eugenol as a New Class of PPARγ Agonists in Treating Inflammation: Design, Synthesis, SAR Analysis and In Vitro Anti-Inflammatory Activity” (Molecules, 2023)
